Measured values: patent US6218438A, “Copolymer compositions for treating viral infections” (Supratek Pharma, Inc., priority 1999, dated 2001)

Experiments:
[1] = target: T1, HIV-1 reverse transcriptase (p51/p66 RT), DDDP activity (Human immunodeficiency virus type 1 group M subtype B, UniProt P03366); assay: Inhibition of DNA dependent DNA polymerase activity of RT (RT DDDP); assay type: biochemical
T1 construct: 10 ng of p51/p66 heterodimeric RT per assay were used
Experimental: (§1) BBNH and Fe(III)-BBNH complex at various concentrations were examined for the ability to inhibit RNA dependent and DNA dependent DNA polymerase activities as well as RNAse H activity of HIV-1 reverse transcriptase (RT RDDP, RT DDDP, and RT RNAse H, respectively). To analyze RT RDDP and RT DDDP the following reaction mixture (100 μl total volume) was used: 50 mM Tris-HCl (pH 7.8), 60 mM KCl, 10 mM MgCl2, 10 ng of p51/p66 RT, 0.1-0.5 units of template/primer, and 0.5-25 μM [^3 H]dNTP. Aliquots of the test compounds dissolved in DMSO were added to the reaction mixtures, incubated for 10-20 min. at 37° C. and than quenched with 500 μl of cold 20 mM sodium pyrophosphate in 10% dichloroacetic acid. After 10 min. on ice, the samples were filtered on Whatman 934-AH glass fiber filters and washed with 10% dichloroacetic acid and ethanol, and the radioactivity was determined by liquid scintillation analysis. To analyze RT RNAse H the following reaction mixture (50 μl total volume) was used: 5OmM Tris-HCl (pH 8.0), 60 mM KCl, 8 mM MgCl2, and variable amounts of ([^3 H]rG)-poly(dC). Generally, 10 ng of p51/p66 heterodimeric RT per assay were used. Aliquots of the test compounds dissolved in DMSO were added to the reaction mixtures, incubated for 20 min. at 37° C. and than quenched by placing the tubes on ice followed by the addition of 100 μl of cold 7% perchloric acid. After 10 min. on ice, the samples were centrifuged at 12,000 g for 15 min. 100 μl of the supernatants were carefully removed, and the radioactivity was determined by liquid scintillation analysis.

[2] = Solubility in a water medium (general statement); assay type: physicochemical
[3] = target: T2, HIV-1 reverse transcriptase (p51/p66 RT), RNAse H activity (Human immunodeficiency virus type 1 group M subtype B, UniProt P03366); assay: Inhibition of RNAse H activity of RT; assay type: biochemical
T2 construct: 10 ng of p51/p66 heterodimeric RT per assay were used
Experimental: as §1

[4] = tested on: MT2 cells; assay: Cytotoxic activity against uninfected MT2 cells (XTT assay); assay type: cell-based, human; details: 4 days at 37° C., in DMSO
Experimental: BBNH and Fe(III)-BBNH complex at various concentrations were examined for cytotoxic activity against uninfected MT2 cells. Aliquots of a solution of the compounds in dimethyl sulfoxide were added to the MT2 cells (2×10^5 cells/ml) in RPMI medium containing 10% fetal bovine serum to provide defined final concentrations of test compound. The cells and test compounds were cultured for 4 days at 37° C., in the presence of 5% CO2 and then cytotoxic effect of the compounds was analyzed by using the standard XTT assay. The CC50 calculated from the results were 10±0.5 μM for BBNH and more than 1000 μM for Fe(III)-BBNH.

[5] = Water solubility of Fe(III)BBNH in various Pluronic solutions; assay type: physicochemical; details: 180 min
Experimental: The samples of Fe(III)BBNH (1 mg of each) were placed in 1 ml of various water solutions of Pluronics. The samples were intensively agitated during three hours at room temperature using a rotator. The samples were then centrifuged at 10,000g for 10 min. The supernatants (500 μl each) were separated and then dried using a speed-vac centrifuge. Each sample was dissolved in 500 μl DMSO and aliquots (50 μl each) were transferred to 96-well plate. The optical densities were determined at λ400 nm using a microplate. The test compound concentrations in the samples were then determined by using the calibration shown in Example 4A. Each concentration of Fe(III)BBNH was analyzed in triplicates. Each concentration of Fe306 was measured in triplicates.

[6] = tested on: cells; assay: Cytotoxicity (general statement); assay type: cell-based
[7] = Solubility of Fe(III)BBNH in Pluronic P85 formulations; assay type: physicochemical
Experimental: Various amounts of Fe(III)BBNH were dissolved in 200 μl dimethyl formamide and aliquots (20 μl each) were mixed with the equal volumes of Pluronic P85 solutions of various concentrations in methanol. The water solution of sodium acetate (10 μl) was added to each sample to the final concentration of the salt of 60 mM. The samples were dried by using a speed-vac centrifuge. Each sample was dissolved in 100 μl of 10% Pluronic P85 solution in water. The samples were intensively agitated during two hours at room temperature using a rotator. After that the samples were centrifuged at 10,000 g for 10 min. The supernatants were separated and then diluted with 10% Pluronic P85 solution in water to fit the range of calibration curve. The aliquots (50 μl each) were transferred to 96-well plate and analyzed. The optical densities were determined at λ400 nm using a microplate reader. Fe(III)BBNH concentrations in the samples were then determined by using the calibration shown in Example 4A. Each concentration of Fe(III)BBNH was analyzed in triplicates. Each concentration of Fe306 was measured in triplicates.

[8] = tested on: HIV-1 replication in cells; assay: Inhibition of HIV-1 replication in infected cells (general statement); assay type: cell-based

Structure (SMILES): CC(C)(C)c1ccc(C(=O)NN=Cc2c(O)ccc3ccccc23)cc1.C[O-].[Cl-].[Cl-].[Fe+3] [Fe(III)-BBNH]
- IC50 [1]: 0.9 ± 0.3 µM
- Ratio BBNH/Fe(III)-BBNH (IC50), RT DDDP [1]: 13.5
- solubility in a water medium [2]: practically insoluble in a water medium
- IC50 ([3]; 10 min. preincubation): 0.5 ± 0.07 µM
- Ratio BBNH/Fe(III)-BBNH (IC50), RT RNase H ([3]; 10 min. preincubation): 7
- IC50 ([3]; No preincubation): 0.9 ± 0.5 µM
- Ratio BBNH/Fe(III)-BBNH (IC50), RT RNase H ([3]; No preincubation): > 50
- CC50 [4]: > 1000 µM
- Solubility of Fe(III)BBNH ([5]; Pluronic F87 (2% w/v) in water): 992.5 µg/mL
- Solubility of Fe(III)BBNH ([5]; Pluronic F108 (2% w/v) in water): 86.5 µg/mL
- Solubility of Fe(III)BBNH ([5]; Pluronic F127 (2% w/v) in water): 113.6 µg/mL
- Solubility of Fe(III)BBNH ([5]; Pluronic L44 (2% w/v) in water): 986.8 µg/mL
- Solubility of Fe(III)BBNH ([5]; Pluronic L61 (1% w/v) in water): 3.5 µg/mL
- Solubility of Fe(III)BBNH ([5]; Pluronic L64 (2% w/v) in water): 996.6 µg/mL
- Solubility of Fe(III)BBNH ([5]; Pluronic L81 (2% w/v) in water): 175.3 µg/mL
- Solubility of Fe(III)BBNH ([5]; Pluronic P84 (1% w/v) in water): 987.2 µg/mL
- Solubility of Fe(III)BBNH ([5]; Pluronic P85 (1% w/v) in water): 998.3 µg/mL
- Solubility of Fe(III)BBNH ([5]; Pluronic P123 (2% w/v) in water): 125.7 µg/mL
- cytotoxicity [6]: virtually no cytotoxicity
- Solubility ([7]; 1% P85, 1 mg/ml added, 120 min): 1120 µg/mL
- Solubility ([7]; 1% P85, 2 mg/ml added): 2120 µg/mL
- Solubility ([7]; 1% P85, 5 mg/ml added): 1400 µg/mL
- Solubility ([7]; 1% P85, 10 mg/ml added, 120 min): 1390 µg/mL
- Solubility ([7]; 1% P85, 20 mg/ml added, 120 min): 730 µg/mL
- Solubility ([7]; 1% P85, 30 mg/ml added, 120 min): 10 µg/mL
- Solubility ([7]; 1% P85, 40 mg/ml added, 120 min): 30 µg/mL
- Solubility ([7]; 2% P85, 1 mg/ml added, 120 min): 1130 µg/mL
- Solubility ([7]; 2% P85, 2 mg/ml added): 2160 µg/mL
- Solubility ([7]; 2% P85, 5 mg/ml added): 5020 µg/mL
- Solubility ([7]; 2% P85, 10 mg/ml added, 120 min): 3100 µg/mL
- Solubility ([7]; 2% P85, 20 mg/ml added, 120 min): 2710 µg/mL
- Solubility ([7]; 2% P85, 30 mg/ml added, 120 min): 2390 µg/mL
- Solubility ([7]; 2% P85, 40 mg/ml added, 120 min): 420 µg/mL
- Solubility ([7]; 3% P85, 1 mg/ml added, 120 min): 1040 µg/mL
- Solubility ([7]; 3% P85, 2 mg/ml added): 2240 µg/mL
- Solubility ([7]; 3% P85, 5 mg/ml added): 5060 µg/mL
- Solubility ([7]; 3% P85, 10 mg/ml added, 120 min): 7420 µg/mL
- Solubility ([7]; 3% P85, 20 mg/ml added, 120 min): 5150 µg/mL
- Solubility ([7]; 3% P85, 30 mg/ml added, 120 min): 5140 µg/mL
- Solubility ([7]; 3% P85, 40 mg/ml added, 120 min): 2960 µg/mL
- Solubility ([7]; 5% P85, 1 mg/ml added, 120 min): 1090 µg/mL
- Solubility ([7]; 5% P85, 2 mg/ml added): 2080 µg/mL
- Solubility ([7]; 5% P85, 5 mg/ml added): 5090 µg/mL
- Solubility ([7]; 5% P85, 10 mg/ml added, 120 min): 10510 µg/mL
- Solubility ([7]; 5% P85, 20 mg/ml added, 120 min): 10360 µg/mL
- Solubility ([7]; 5% P85, 30 mg/ml added, 120 min): 12250 µg/mL
- Solubility ([7]; 5% P85, 40 mg/ml added, 120 min): 10480 µg/mL
- Solubility ([7]; 10% P85, 1 mg/ml added, 120 min): 1080 µg/mL
- Solubility ([7]; 10% P85, 2 mg/ml added): 2060 µg/mL
- Solubility ([7]; 10% P85, 5 mg/ml added): 5160 µg/mL
- Solubility ([7]; 10% P85, 10 mg/ml added, 120 min): 10710 µg/mL
- Solubility ([7]; 10% P85, 20 mg/ml added, 120 min): 19060 µg/mL
- Solubility ([7]; 10% P85, 30 mg/ml added, 120 min): 22870 µg/mL
- Solubility ([7]; 10% P85, 40 mg/ml added, 120 min): 26240 µg/mL
- antiviral activity against HIV-1 replication in cells [8]: no antiviral activity against HIV-1 replication in cells
- inhibition of HIV-1 replication in cells, water-organic formulations ([8]; water-organic formulations): very low activity
